In PubChem BioAssay AID588764 (Broad Institute, 2011):
Inconclusive results are not listed. Active and inactive are the calls of the source. No rule for the calls is given here.

Molecular target: Histone acetyltransferase RTT109 (Candida albicans (strain SC5314 / ATCC MYA-2876)) (UniProt Q5AAJ8)
Test: Rtt109/Vps75 acetyltransferase inhibitor potency, dose response, biochemical, cherry-picked hits, plate reader (AID 588764);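 as to activity change, negative = inhibition: 0% = neutral control wells and -100% = no enzyme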
Details: Rtt109/Vps75 HAT activity; for activity change, negative = inhibition: at 19.5 µM (top of the series)

Chain of Histone acetyltransferase RTT109 (Candida albicans (strain SC5314 / ATCC MYA-2876)) (Q5AAJ8 whole entry, looked up): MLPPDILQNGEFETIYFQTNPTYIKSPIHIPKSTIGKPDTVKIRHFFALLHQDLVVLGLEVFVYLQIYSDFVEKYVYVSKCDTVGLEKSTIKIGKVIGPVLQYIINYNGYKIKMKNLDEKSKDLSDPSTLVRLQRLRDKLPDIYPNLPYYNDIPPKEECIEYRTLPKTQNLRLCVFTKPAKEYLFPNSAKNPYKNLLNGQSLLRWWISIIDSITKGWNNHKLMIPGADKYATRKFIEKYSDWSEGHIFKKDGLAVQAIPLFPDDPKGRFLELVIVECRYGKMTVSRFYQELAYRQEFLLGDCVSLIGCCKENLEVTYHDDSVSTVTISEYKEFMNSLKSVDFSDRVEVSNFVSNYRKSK

SMILES	activity change, negative = inhibition	AC50 [µM]
COc1cc(/C=N/N=C(N)N)ccc1OCc1ccccc1Cl	inactive	–
O=C(CSC1=NCCN1)Nc1cccc([N+](=O)[O-])c1	inactive	–
COc1cc(-c2nnc(SCC(=O)OC3CCCCC3)o2)cc(OC)c1OC	inactive	–
COc1cccc(-c2ccc(C#N)c(SCC(=O)NCCc3ccc(Cl)cc3)n2)c1	inactive	–
O=c1[nH]c2ccccc2c2oc(CCl)nc12	inactive	–
Cc1ccc(C2=NC(C)(C)N=C2SCC(=O)Nc2ccc(Cl)cc2)cc1	inactive	–
O=c1c2ccccc2[se]n1-c1ccccc1	–	1.55
COc1ccc(NC(=O)c2nc3ccccc3s2)cc1	inactive	–
CC(C)OC(=O)N(C)c1ccc(C(O)(C(F)(F)F)C(F)(F)F)cc1	inactive	–
Cc1ccc(NC(=O)OCc2cc(-c3ccccc3)on2)cc1	inactive	–
COc1cc2nc(NCCCN3CCN(C)CC3)n3nc(-c4ccccc4)nc3c2cc1OC	inactive	–
CC1CCc2c(sc(N)c2C(N)=O)C1 (stereo not drawn)	–	20.5
Cc1nc(CC(C)C)cc(C(=O)N2CCCC(CNS(=O)(=O)c3cccs3)C2)n1 (stereo not drawn)	inactive	–
Cc1cccc(NC(=O)CCN2C(=O)c3ccccc3C2=O)c1	inactive	–
Cc1nonc1OCCn1c([N+](=O)[O-])cnc1C	inactive	–
CC(=O)Nc1ccc(OCc2cccc([N+](=O)[O-])c2)cc1	inactive	–
COc1cccc(-c2nn(C)c3sc(C(=O)N4CCN(c5ccccn5)CC4)cc23)c1	inactive	–
Cc1ccccc1C(=O)NCCNC(=O)c1ccco1	inactive	–
Cc1ccc(S(=O)(=O)CCC(=O)c2cccc([N+](=O)[O-])c2)cc1	–	8.29

SMILES	activity change, negative = inhibition	AC50 [µM]
CC(C(=O)Nc1ccc(O)c(C(=O)O)c1)N1C(=O)/C(=C/c2cccs2)SC1=S (stereo not drawn)	inactive	–
COCc1ccc(CN2CCC(n3nccc3NC(=O)C(OC)c3ccccc3)CC2)o1 (stereo not drawn)	inactive	–
NNc1n[nH]c(=S)n1N	inactive	–
O=C(/C=C/c1ccc(Cl)cc1)NCc1ccncc1	inactive	–
CC(C)C(=O)Nc1nnc(CCN2CCCCC2)s1	inactive	–
CN(c1ccc(C(=O)Nc2ccc3c(c2)OCO3)cc1)S(C)(=O)=O	inactive	–
COC(=O)c1ccc(N2C(=O)CC(SCC(=O)Nc3ccc(OC)cc3)C2=O)cc1 (stereo not drawn)	inactive	–
C#CCOCCOCCOCCNc1nc(N2CCN(C(=O)C([C@@H](C)O)n3cc([C@@H](N)CCCCN)nn3)CC2)nc(N2CCN(C(=O)C([C@@H](C)O)n3cc([C@@H](N)CCCCN)nn3)CC2)n1 (stereo partly drawn)	inactive	–
O=S(=O)(Nc1ccc(-c2nnc(SCc3ccc(Cl)cc3)o2)cc1)c1ccccc1	inactive	–
CC[C@@H](C)[C@H](NC(=O)OC(C)(C)C)c1nnc(S(=O)(=O)Cc2cc(C)ccc2C)o1	–	12.6
CN(C)c1ccc(/C=C/c2cc[n+](C)c3ccccc23)cc1	inactive	–
CCC(C)NC(=O)C1CCN(S(=O)(=O)c2cc([N+](=O)[O-])ccc2Cl)CC1 (stereo not drawn)	inactive	–
O=C(NCc1ccc2c(c1)OCO2)c1ccc(CS(=O)Cc2cccc(Cl)c2)o1 (stereo not drawn)	inactive	–
Cc1c(C(=O)Nc2ccc(S(=O)(=O)N(C)C3CCN(C)CC3)cc2)oc2c(Cl)cccc12	inactive	–
Oc1cc2c(cc1O)[C@H]1c3ccc(O)c(O)c3OC[C@@]1(O)C2	–	7.81
O=C(O)COc1ccccc1O	inactive	–
Cc1ccc(C(=O)NCCNC(=O)COc2ccccc2Cl)cn1	inactive	–
CCSS(=O)(=O)c1cccc2cccnc12	–	5.16
CCCC(CCC)C(=O)OC[N+](C)(C)CCOC(=O)C(O)(c1ccccc1)C1CCCC1 (stereo not drawn)	inactive	–
